Holding throughout (assay): DTP human tumour cell line panel, 48 h
Experiment [1] has as its system COLO 205 colon.
Experiment [2] has as its system HT29 colon.
Experiment [3] relates to KM12 colon.
Experiment [4] has as its system MALME-3M melanoma.
Experiment [5] has as its system MCF7 breast.
The subject of experiment [6] is NCI-H226 lung.
Experiment [7] has as its system RPMI-8226 leukemia.
Experiment [8] relates to SF-268 CNS.
The test system of experiment [9] is SK-MEL-28 melanoma.
Experiment [10] has as its system T-47D breast.

Molecules are shown by their SMILES. Several values for one entry are separate records, joined by “and”; a condition that tells them apart may be missing. Identical values can stand only once.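 Assay format: 96-well plates, 48-hour exposure. At the GI50, growth is halved. Definition used: TGI = concentration required for complete inhibition of growth.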

With `O=C1NC2(CCCCC2)C(=O)N1CCN(CCCl)CCCl`, the GI50 in experiment [1], in [2], in [3], in experiment [4], in experiment [5] and in experiment [6] was > 25 µM in each case. In addition, the GI50 was > 25 µM in experiment [7]; > 25 µM and 112 µM in experiment [8]; > 25 µM in [9]. Also, the TGI in experiment [1] is > 250 µM; in experiment [2], > 250 µM; in experiment [3], > 194 µM; in experiment [4], > 194 µM; in experiment [5], > 250 µM; in experiment [6], > 250 µM. The TGI was > 250 µM in experiment [7], > 250 µM in experiment [8], > 114 µM in [9] and 25 µM in [10].
Regarding `CNC(=O)c1c(F)cccc1Nc1nc(Nc2cc3c(cc2OC)CCN3C(=O)CN(C)C)nc2[nH]ccc12`, the GI50 in experiment [1] is 0.151 µM; in [2], 0.0643 µM; in experiment [3], 2.23 µM; in experiment [4], 1.5 µM; in [5], 0.359 µM; in experiment [6], 16.2 µM. In addition, the GI50 in [7] is 4.94 µM; in [8], 5.44 µM; in experiment [9], 1.57 µM; in experiment [10], 8.19 µM. For the same compound, the TGI came out at 3.48 µM in [1]; 1.66 µM in experiment [2]; 4.99 µM in experiment [3]; 3.13 µM in experiment [4]; 2.88 µM in experiment [5]; 43.6 µM in experiment [6]. For the same compound, the TGI turned out to be 17.4 µM in [7], 15.2 µM in experiment [8], 2.97 µM in [9] and 28.4 µM in experiment [10].
As for `Clc1cccc(CNc2c3ccccc3nc3ccccc23)c1`, the GI50 in experiment [1] is 1.54 µM; in experiment [2] it was 1.98 µM; in experiment [3], 2.49 µM; in experiment [4] it was 1.61 µM; in [5], 1.62 µM; in experiment [6], 2.22 µM. The GI50 was 1.74 µM in experiment [7], 2.54 µM in experiment [8], 1.7 µM in [9] and 2 µM in experiment [10]. The TGI in experiment [1] was determined as 3.88 µM; in [2], 10.2 µM; in [3] it was 7.7 µM; in [4] it was 3.02 µM; in experiment [5], 3.53 µM; in experiment [6] it was 6.24 µM. Also, the total growth inhibition concentration (TGI) in [7] was 4.18 µM; in experiment [8], 7.88 µM; in experiment [9], 3.25 µM; in experiment [10] it was 5.06 µM.
Regarding `COc1ccc2c(O)c(/C=C3\N=Nc4ncccc43)oc2c1C[C@@H]1CCNC[C@H]1F`, the GI50 in [1] is 0.323 µM; in experiment [2], 0.307 µM; in experiment [3], 0.314 µM; in [4], 1.89 µM; in experiment [5], 0.118 µM; in [6], 0.256 µM. Besides, the GI50 in [7] was 0.266 µM; in experiment [8] it was 0.294 µM; in experiment [9], 2.22 µM; in experiment [10] it was 2.32 µM. Also, the concentration for total growth inhibition (TGI) in [1] was found to be 1.43 µM; in [2] it was 2.09 µM; in experiment [3] it was 1.4 µM; in experiment [4] it was 5.23 µM; in [5], 1.09 µM; in [6], 3.55 µM. The concentration for total growth inhibition (TGI) was 0.984 µM in experiment [7], 1.39 µM in [8], 7.25 µM in experiment [9] and 11.8 µM in experiment [10].
`COc1ccc(C2C(C#N)=C(N)Oc3c2sc2c(Br)cccc32)cc1` (centres undefined): the GI50 in experiment [1] is 2.23 µM; in [2], 3.8 µM; in experiment [3], 1.92 µM; in [4], 4.75 µM; in experiment [5], 0.467 µM; in [6], 6.62 µM. For the same compound, the GI50 in [7] is 2.9 µM; in [8], 4.62 µM; in [9], 8.15 µM; in experiment [10], 3.13 µM. The concentration for total growth inhibition (TGI) in experiment [1] came out at 5.39 µM; in experiment [2], 11.2 µM; in experiment [3] it was 14 µM; in experiment [4], 25.3 µM; in experiment [5], 12 µM; in experiment [6], 24 µM. For the same compound, the TGI came out at 12.5 µM in [7], 21.5 µM in experiment [8], 24.1 µM in experiment [9] and 15 µM in experiment [10].
For the compound `Clc1ccc2c(c1)N(C1CCCN(Cc3ccccc3)C1)c1ccccc1S2` (centres undefined), the GI50 in [1] is 2.9 µM; in experiment [2], 11.5 µM; in [3] it was 4.73 µM; in experiment [4], 3.88 µM; in experiment [5], 3.25 µM; in [6], 22.6 µM. The GI50 in experiment [7] was 3.91 µM; in [8] it was 3.8 µM; in [9], 7.69 µM; in experiment [10], 7.4 µM. In addition, the concentration for total growth inhibition (TGI) in experiment [1] was 10.1 µM; in [2], > 100 µM; in experiment [3] it was > 100 µM; in [4], 39.9 µM; in experiment [5], > 100 µM; in [6], > 100 µM. The TGI in [7], in experiment [8], in experiment [9] and in experiment [10] was > 100 µM each time.
Consider `OC1CCCC2CCC[N-]C12.OC1CCCC2CCC[N-]C12.[O]=[V][OH]` (centres undefined), for which the GI50 in [1] was 21.1 µM; in experiment [2] it was 4.72 µM; in experiment [3] it was 7.24 µM; in [4], 5.03 µM; in [5] it was 2.87 µM; in experiment [6], 42 µM. Also, the GI50 in experiment [7] is 2.54 µM; in [8], 4.04 µM; in experiment [9] it was 21.2 µM; in experiment [10], 0.825 µM. The total growth inhibition concentration (TGI) is 81.8 µM in [1]; > 100 µM in experiment [2]; > 100 µM in [3]; > 100 µM in experiment [4]; 10.1 µM in experiment [5]; > 100 µM in experiment [6]. Further, the TGI was 25.8 µM in experiment [7], > 100 µM in [8], > 100 µM in experiment [9] and 26.6 µM in experiment [10].

The GI50 is the concentration at which growth is held to half of that of the control. The TGI is the concentration at which net growth stops. Low readings indicate more potent growth arrest, high ones less potent growth arrest.

Source of the values: PubChem BioAssay (NCI).
